Where two headings read alike, the source gives them in different places. Ends that are not written are not given here.
Assay: Clinical test in humans, three 30-min i.v. infusions 8 hours apart, plasma PK
Type: in vivo
Details: human, three 30-min i.v. infusions 8 h apart; for AUC / Cmax / Tmax / AUC(0-t) / half-life: iv; for AUC(0-t): read-out: AUC0-24; for half-life: after the last infusion
Method: A total of 8 subjects were included in each group. In each group, 6 subjects received the active treatment and 2 received the placebo. The active treatment was as follows in each group: • Group 9 received three 8 hours apart 30-min Peptide 1 intravenous (i.v.) infusions, wherein each i.v. infusion corresponded to a dose of 50 μg/kg. • Group 10 received three 8 hours apart 30-min Peptide 1 intravenous (i.v.) infusions, wherein each i.v. infusion corresponded to a dose of 100 μg/kg. • Group 11 received three 8 hours apart 30-min Peptide 1 intravenous (i.v.) infusions, wherein each i.v. infusion corresponded to a dose of 140 μg/kg. • Group 12 received three 8 hours apart 30-min Peptide 1 intravenous (i.v.) infusions, wherein each i.v. infusion corresponded to a dose of 200 μg/kg. • Group 13 received three 8 hours apart 30-min Peptide 1 intravenous (i.v.) infusions, wherein each i.v. infusion corresponded to a dose of 250 μg/kg.
The tested liquid pharmaceutical composition has a pH of 8.2-8.4, and comprises the following: • i) 5 mg/ml of Peptide 1, • ii) 4% (w/w) mannitol, • iii) 1% (w/w) sucrose, • iv) 0.01% (w/w) Polysorbate-80, • v) 10 mM glycyl-glycine, and • vi) sterile water for injection.
Venous whole blood samples were collected from all subjects.
Plasma samples were analyzed for Peptide 1 using validated Liquid chromatography—Tandem Mass spectrometry (LC-MS/MS) methods by Charles River Laboratories (CRL).
Derivation of PK parameters were carried out by PhinC Development using Phoenix WinNonlin® (Version Phoenix 8.1—Certara—Princeton—USA). A non-compartmental analysis (NCA) approach was chosen.
For the calculation of the PK parameters and characteristics the following rules were applied: • All the plasma concentrations validated by the bioanalytical laboratory and provided to the pharmacokinetics were used for the PK analysis. • The theoretical PK blood sampling time points were used. • At time points in the lag-time between time zero and the first concentration equal or above limit of quantification (LOQ), concentrations below the LOQ (BLQ) were set to zero (0). • Concentrations BLQ between 2 concentrations equal or above LOQ were considered as missing. • Trailing concentrations (at time point between time of last measurable concentrations and time of last blood sample) BLQ were not used in calculations. • For 3 infusions regimen, each infusion was considered separately and BLQ rules were applied for each infusion. […] If the pre-dose value was greater than 5% of Cmax, the subject was dropped from all statistical evaluations.
AUC0-tau was only calculated if there were at least 3 concentrations above LOQ. • AUC0-24: The area under the plasma concentration-time curve from time zero (pre-dose) to 24 h was calculated as the sum of the 3 AUC0-tau: AUC0-24=AUC0-tau1+AUC0-tau2+AUC0-tau3. • AUC0-t: The area under the concentration-time curve from time zero (pre-dose) to the time of last quantifiable concentration was calculated using a linear trapezoidal method after each administration (AUC0-t1, AUC0-t2 and AUC0-t3, where AUC0-t1 was AUC0-t corresponded to the AUC from pre-dose to the last measurable quantifiable concentration following the first infusion). AUC0-t was only calculated if there were at least 3 concentrations above LOQ. • ke: The terminal plasma elimination rate-constant was estimated from log-linear regression analysis of the terminal phase of the plasma concentration-time profile. The number of points included in the terminal phase was determined by visual inspection of the semi-log plots of the plasma concentration-time profiles. A minimum of 3 data points, including the last measured data point and excluding Cmax, had to be available for the regression. The correlation coefficient for the goodness of the fit of the regression line through the data points (r^2) had to be 0.8000 or higher, for the value to be considered reliable. […]

AUC (in vivo, 250 ug/kg, 250 μg/kg each, mean, read-out: AUC0-t3): 2430 ng·h/mL | AUC (in vivo, 250 ug/kg, 250 μg/kg each, mean, read-out: AUC0-tau1): 2630 ng·h/mL | AUC (in vivo, 250 ug/kg, 250 μg/kg each, mean, read-out: AUC0-tau2): 2440 ng·h/mL | AUC (in vivo, 250 ug/kg, 250 μg/kg each, mean, read-out: AUC0-tau3): 2480 ng·h/mL | Cmax (in vivo, 250 ug/kg, 250 μg/kg each, mean, read-out: Global Cmax): 2330 ng/mL | Tmax (in vivo, 250 ug/kg, 250 μg/kg each, median, read-out: Global tmax): 8.5 h | Tmax (in vivo, 250 ug/kg, 250 μg/kg each, median, read-out: tmax3): 16.5 h | AUC (in vivo, 50 μg/kg each, GM, read-out: AUC0-t1): 417 ng·h/mL | AUC (in vivo, 50 μg/kg each, GM, read-out: AUC0-tau1): 509 ng·h/mL | AUC (in vivo, 50 μg/kg each, mean, read-out: AUC0-tau2): 517 ng·h/mL | AUC (in vivo, 50 μg/kg each, mean, read-out: AUC0-tau3): 541 ng·h/mL | AUC(0-t) (in vivo, 100 μg/kg each, GM): 3600 ng·h/mL | AUC (in vivo, 100 μg/kg each, GM, read-out: AUC0-t1): 982 ng·h/mL | AUC (in vivo, 100 μg/kg each, GM, read-out: AUC0-t2): 1120 ng·h/mL | AUC (in vivo, 100 μg/kg each, GM, read-out: AUC0-t3): 1090 ng·h/mL | AUC (in vivo, 100 μg/kg each, mean, read-out: AUC0-t1): 993 ng·h/mL | AUC (in vivo, 100 μg/kg each, mean, read-out: AUC0-tau1): 1120 ng·h/mL | AUC (in vivo, 100 μg/kg each, mean, read-out: AUC0-tau2): 1240 ng·h/mL | AUC (in vivo, 100 μg/kg each, mean, read-out: AUC0-tau3): 1260 ng·h/mL | Cmax (in vivo, 100 μg/kg each, mean, read-out: Global Cmax): 1020 ng/mL | half-life (in vivo, 140 μg/kg each, GM): 1.93 h | AUC(0-t) (in vivo, 140 μg/kg each, GM): 5310 ng·h/mL | AUC (in vivo, 140 μg/kg each, GM, read-out: AUC0-t3): 1570 ng·h/mL | AUC (in vivo, 140 μg/kg each, mean, read-out: AUC0-tau3): 1710 ng·h/mL | half-life (in vivo, 200 μg/kg each, GM): ~2 h | AUC (in vivo, 200 μg/kg each, GM, read-out: AUC0-t1): 2490 ng·h/mL | AUC (in vivo, 200 μg/kg each, GM, read-out: AUC0-tau1): 2590 ng·h/mL | AUC (in vivo, 200 μg/kg each, GM, read-out: AUC0-tau2): 2750 ng·h/mL | AUC (in vivo, 200 μg/kg each, GM, read-out: AUC0-tau3): 2710 ng·h/mL | Cmax (in vivo, 200 μg/kg each, mean, read-out: Global Cmax): 2370 ng/mL | half-life (in vivo, 250 μg/kg each, GM): ~2 h | AUC (in vivo, 250 μg/kg each, GM, read-out: AUC0-t1): 2500 ng·h/mL | AUC (in vivo, 250 μg/kg each, GM, read-out: AUC0-t2): 2300 ng·h/mL | AUC (in vivo, 250 μg/kg each, GM, read-out: AUC0-tau3): 2460 ng·h/mL | Tmax (in vivo, all subjects except one (time of the end of infusion), read-out: tmax after each administration): 0.5 h | Cmax (plasma, 50 μg/kg, 50 μg/kg each, GM, read-out: Cmax1): 403 ng/mL | Cmax (plasma, 50 μg/kg, 50 μg/kg each, mean, read-out: Cmax2): 395 ng/mL | Cmax (plasma, 100 μg/kg, 100 μg/kg each, GM, read-out: Cmax1): 877 ng/mL | Cmax (plasma, 100 μg/kg, 100 μg/kg each, GM, read-out: Cmax3): 958 ng/mL | Cmax (plasma, 100 μg/kg, 100 μg/kg each, mean, read-out: Cmax1): 883 ng/mL | Cmax (plasma, 100 ug/kg, 100 μg/kg each, mean, read-out: Cmax2): 977 ng/mL | Cmax (plasma, 140 μg/kg, 140 μg/kg each, GM, read-out: Cmax1): 1310 ng/mL | Cmax (plasma, 140 μg/kg, 140 μg/kg each, GM, read-out: Cmax3): 1220 ng/mL | Cmax (plasma, 140 μg/kg, 140 μg/kg each, mean, read-out: Cmax1): 1340 ng/mL | Cmax (plasma, 200 μg/kg, 200 μg/kg each, GM, read-out: Cmax3): 2130 ng/mL | Cmax (plasma, 200 μg/kg, 200 μg/kg each, mean, read-out: Cmax1): 2190 ng/mL | Cmax (plasma, 200 μg/kg, 200 μg/kg each, mean, read-out: Cmax2): 2050 ng/mL | Cmax (plasma, 250 μg/kg, 250 μg/kg each, GM, read-out: Cmax1): 1890 ng/mL | Cmax (plasma, 250 μg/kg, 250 μg/kg each, GM, read-out: Cmax2): 1800 ng/mL | Cmax (plasma, 250 μg/kg, 250 μg/kg each, GM, read-out: Cmax3): 1780 ng/mL | Cmax (plasma, 250 μg/kg, 250 μg/kg each, mean, read-out: Cmax1): 1960 ng/mL | Cmax2 (50 μg/kg each, GM): 391 ng/mL | Cmax3 (50 μg/kg each, GM): 396 ng/mL | tmax1 (50 μg/kg each, GM): 0.50 h | tmax2 (50 μg/kg each, GM): 8.50 h | Cmax1 (50 μg/kg each, mean): 406 ng/mL | tmax1 (50 μg/kg each, median): 0.50 h | tmax2 (50 μg/kg each, median): 8.50 h | tmax3 (50 μg/kg each, median): 16.50 h | Cmax2 (100 μg/kg each, GM): 971 ng/mL | tmax1 (100 μg/kg each, GM): 0.50 h | tmax2 (100 μg/kg each, GM): 8.50 h | tmax3 (100 μg/kg each, GM): 16.50 h | Cmax3 (100 μg/kg each, mean): 970 ng/mL | tmax1 (100 μg/kg each, median): 0.50 h | tmax2 (100 μg/kg each, median): 8.50 h | Cmax2 (140 μg/kg each, GM): 1360 ng/mL | tmax1 (140 μg/kg each, GM): 0.50 h | tmax2 (140 μg/kg each, GM): 8.47 h | tmax3 (140 μg/kg each, GM): 16.50 h | Cmax2 (140 μg/kg each, mean): 1390 ng/mL | Cmax3 (140 μg/kg each, mean): 1240 ng/mL | tmax1 (140 μg/kg each, median): 0.50 h | tmax2 (140 μg/kg each, median): 8.50 h | AUC0-tau3 (200 μg/kg each, GM): 2774.47 ng·h/mL | Cmax1 (200 μg/kg each, GM): 2170 ng/mL | Cmax2 (200 μg/kg each, GM): 2020 ng/mL | tmax1 (200 μg/kg each, GM): 0.50 h | tmax2 (200 μg/kg each, GM): 8.50 h | tmax3 (200 μg/kg each, GM): 16.47 h | Cmax3 (200 μg/kg each, mean): 2170 ng/mL | tmax1 (200 μg/kg each, median): 0.50 h | tmax2 (200 μg/kg each, median): 8.50 h | tmax2 (250 μg/kg each, GM): 8.54 h | tmax3 (250 μg/kg each, GM): 16.44 h | Cmax2 (250 μg/kg each, mean): 1930 ng/mL | Cmax3 (250 μg/kg each, mean): 1800 ng/mL | tmax1 (250 μg/kg each, median): 0.50 h | tmax2 (250 μg/kg each, median): 8.50 h
Substance: AMVSEFLKQAWFIENEEQEYVQTLKSSKGGPGSAVSPYPTFNPSSDV-NH2 [Peptide 1]

Reference: patent US20250345392A1, “ANNEXIN A1 LIQUID PHARMACEUTICAL COMPOSITION” (ResoTher Pharma A/S, priority 2022, published 2025)
